Earlier results as cited in patent publication US7611833B2, “Yeast genes that affect viral replication” (priority 2001, dated 2009).
Read-outs that look alike come from different tables or passages of the source.

Key:
poliovirus [1] = tested on: poliovirus
poliovirus [2] = tested on: poliovirus; remark: listed apart in the source
poliovirus [3] = tested on: poliovirus; remark: listed apart in the source
HeLa cells = HeLa cells treated with oleic acid

Compound: C/C=C/C/C=C/CCC(=O)[C@H]1O[C@H]1C(N)=O [Cerulenin]
- RNA replication by the alphavirus SFV (alphavirus SFV): inhibits RNA replication
- RNA replication by poliovirus (poliovirus [1]): inhibits RNA replication

Compound: CCCCCCCC/C=C\CCCCCCCC(=O)O [oleic acid]
- In vitro translation (poliovirus [2]): inhibited in vitro translation
- Poliovirus RNA replication (poliovirus [2]): disrupts poliovirus RNA replication
- Poliovirus RNA replication (poliovirus [3]): disrupts poliovirus RNA replication
- Synthesis of lipids (HeLa cells): major changes in the synthesis of many lipids
